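Method: 48-hour compound exposure of cells in 96-well plates, five concentrations, linear interpolation of endpoints. Abbreviation: GI50, concentration required for 50% inhibition of growth.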 Active and inactive are the calls of the source. No stated cut-off is given here; in the data, active = GI50 up to about 1.1 µM and inactive = higher.
Experiments:
Assay in all cases: growth of human tumour cells (NCI), 48 h
[1] = tested on: SNB-19
[2] = tested on: SK-OV-3
[3] = tested on: MOLT-4
[4] = tested on: NCI-H23
[5] = tested on: ACHN
[6] = tested on: Malme-3M
[7] = tested on: NCI-H226
[8] = tested on: NCI-H460
[9] = tested on: UO-31
[10] = tested on: T47D
[11] = tested on: BT-549
[12] = tested on: A498
[13] = tested on: SF-268
[14] = tested on: SK-MEL-2
[15] = tested on: SK-MEL-5
[16] = tested on: SK-MEL-28
[17] = tested on: OVCAR-4
[18] = tested on: HCT-15
[19] = tested on: HCT-116
[20] = tested on: CCRF-CEM

Compound | GI50 [1] | GI50 [2] | GI50 [3] | GI50 [4] | GI50 [5] | GI50 [6] | GI50 [7] | GI50 [8] | GI50 [9] | GI50 [10] | GI50 [11] | GI50 [12] | GI50 [13] | GI50 [14] | GI50 [15] | GI50 [16] | GI50 [17] | GI50 [18] | GI50 [19] | GI50 [20]
O=C([C@H](O)[C@@H](O)c1ccc(Br)cc1)C12CC3CC(CC(C3)C1)C2 | 19.2 µM (inactive) | 28.4 µM (inactive) | 14.4 µM (inactive) | 8.45 µM (inactive) | 16.3 µM (inactive) | 13.9 µM (inactive) | > 49.8 µM (inactive) | 3.74 µM (inactive) | 23.7 µM (inactive) | 6.56 µM (inactive) | 8.73 µM (inactive) | 11.6 µM (inactive) | 11.6 µM (inactive) | 16.3 µM (inactive) | 23.6 µM (inactive) | 24.7 µM (inactive) | 19.3 µM (inactive) | 13.6 µM | 10.4 µM (inactive) | –
C[N+](C)([O-])CCCNc1c2ccccc2nc2cccc([N+](=O)[O-])c12 | 0.409 µM (active) | 0.631 µM (active) | 0.142 µM (active) | 0.156 µM (active) | 0.324 µM (active) | 0.173 µM (active) | 0.313 µM (active) | 0.142 µM (active) | 1.41 µM (inactive) | 0.257 µM (active) | 0.703 µM (active) | 0.164 µM (active) | 0.274 µM (active) | 0.214 µM (active) | 0.161 µM (active) | 0.684 µM (active) | 0.288 µM (active) | 0.457 µM | 0.228 µM (active) | 0.249 µM (active)
Sc1nn2c(COc3cccc(OCc4nnc5sc(S)nn45)c3)nnc2s1 | > 100 µM (inactive) | > 100 µM (inactive) | 2.09 µM (inactive) | > 100 µM (inactive) | > 100 µM (inactive) | > 100 µM (inactive) | > 100 µM (inactive) | 31.8 µM (inactive) | > 100 µM (inactive) | > 100 µM (inactive) | > 100 µM (inactive) | > 100 µM (inactive) | > 100 µM (inactive) | > 100 µM (inactive) | – | > 100 µM (inactive) | > 100 µM (inactive) | 52.8 µM | > 100 µM (inactive) | 28.2 µM (inactive)
O=C(c1ccc(Cl)cc1)C1OC12C(=O)Nc1ccccc12 (stereo not drawn) | 40.9 µM (inactive) | 25.1 µM (inactive) | 0.569 µM (active) | 15.5 µM (inactive) | 15.1 µM (inactive) | 4.55 µM (inactive) | 20.3 µM (inactive) | 18.5 µM (inactive) | 15.8 µM (inactive) | 16.3 µM (inactive) | 6.93 µM (inactive) | 19.7 µM (inactive) | 16.8 µM (inactive) | 7.6 µM (inactive) | 12.1 µM (inactive) | 15.2 µM (inactive) | 19.1 µM (inactive) | 4.74 µM | 3.61 µM (inactive) | 0.388 µM (active)
CN(C)c1ccc(/C=C(\NC(=O)c2ccccc2)C2=NC(CCC(=O)O)C(=O)O2)cc1 (stereo not drawn) | 33.2 µM (inactive) | > 50 µM (inactive) | > 50 µM (inactive) | > 50 µM (inactive) | > 50 µM (inactive) | > 31.3 µM (inactive) | > 50 µM (inactive) | > 50 µM (inactive) | > 50 µM (inactive) | > 50 µM (inactive) | > 50 µM (inactive) | > 50 µM (inactive) | > 50 µM (inactive) | > 50 µM (inactive) | > 48.3 µM (inactive) | > 50 µM (inactive) | > 35.1 µM (inactive) | > 50 µM | > 50 µM (inactive) | > 43.9 µM (inactive)
C1=C2SSC3=CC=C(SSc4ccc(s4)SSC4=CC=C(SSC(=C1)S2)S4)S3 | > 100 µM (inactive) | > 100 µM (inactive) | > 100 µM (inactive) | > 100 µM (inactive) | > 100 µM (inactive) | > 100 µM (inactive) | > 100 µM (inactive) | > 100 µM (inactive) | > 100 µM (inactive) | > 100 µM (inactive) | > 100 µM (inactive) | > 100 µM (inactive) | > 100 µM (inactive) | > 100 µM (inactive) | > 100 µM (inactive) | > 100 µM (inactive) | > 100 µM (inactive) | > 100 µM | > 100 µM (inactive) | > 100 µM (inactive)
C/C(=N\Nc1nc2cc(F)ccc2s1)c1ccccn1 | 0.391 µM (active) | 0.0953 µM (active) | 0.0102 µM (active) | 0.0352 µM (active) | < 0.01 µM (active) | < 0.01 µM (active) | < 0.0242 µM (active) | 0.0412 µM (active) | 0.0192 µM (active) | < 0.01 µM (active) | 1.19 µM (inactive) | 12.1 µM (inactive) | 0.0301 µM (active) | 1.54 µM (inactive) | 0.053 µM (active) | 0.294 µM (active) | 1.06 µM (active) | < 0.022 µM | < 0.0161 µM (active) | < 0.01 µM (active)
CS(=N)(=O)CCC(N)P(=O)(O)O (stereo not drawn) | > 100 µM (inactive) | > 100 µM (inactive) | > 100 µM (inactive) | > 100 µM (inactive) | > 100 µM (inactive) | > 100 µM (inactive) | > 100 µM (inactive) | > 100 µM (inactive) | > 100 µM (inactive) | > 100 µM (inactive) | > 100 µM (inactive) | > 100 µM (inactive) | > 100 µM (inactive) | > 100 µM (inactive) | > 100 µM (inactive) | > 100 µM (inactive) | > 100 µM (inactive) | > 100 µM | > 100 µM (inactive) | –
COc1ccc(CNNC(=O)c2cc[n+]([BH2-]C#N)cc2)cc1OC | > 100 µM (inactive) | – | > 100 µM (inactive) | – | > 100 µM (inactive) | > 100 µM (inactive) | > 100 µM (inactive) | > 100 µM (inactive) | > 100 µM (inactive) | > 100 µM (inactive) | > 100 µM (inactive) | > 100 µM (inactive) | > 100 µM (inactive) | > 100 µM (inactive) | > 100 µM (inactive) | > 100 µM (inactive) | > 100 µM (inactive) | > 100 µM | > 100 µM (inactive) | > 100 µM (inactive)
N/N=C(/CC(O)(C(F)(F)F)C(F)(F)F)c1ccccc1 | > 10 µM (inactive) | > 10 µM (inactive) | > 10 µM (inactive) | > 10 µM (inactive) | > 10 µM (inactive) | > 10 µM (inactive) | > 10 µM (inactive) | > 10 µM (inactive) | – | > 10 µM (inactive) | > 10 µM (inactive) | > 10 µM (inactive) | > 10 µM (inactive) | > 10 µM (inactive) | > 10 µM (inactive) | > 10 µM (inactive) | > 10 µM (inactive) | > 10 µM | > 10 µM (inactive) | > 10 µM (inactive)
Nn1c(SCC(=O)O)nc2ccccc2c1=O | > 100 µM (inactive) | – | > 100 µM (inactive) | > 100 µM (inactive) | > 100 µM (inactive) | > 100 µM (inactive) | > 100 µM (inactive) | > 100 µM (inactive) | > 100 µM (inactive) | > 100 µM (inactive) | > 100 µM (inactive) | > 100 µM (inactive) | > 100 µM (inactive) | > 100 µM (inactive) | > 100 µM (inactive) | > 100 µM (inactive) | > 100 µM (inactive) | > 100 µM | > 100 µM (inactive) | > 100 µM (inactive)
CCOc1cc(C2CC(c3ccc(NS(=O)(=O)c4cc([N+](=O)[O-])ccc4C)cc3)=NN2C(=O)c2ccccc2)ccc1O (stereo not drawn) | 29.6 µM (inactive) | 18.2 µM (inactive) | 19.4 µM (inactive) | 21.5 µM (inactive) | 18.5 µM (inactive) | 13.8 µM (inactive) | 19.2 µM (inactive) | – | 15.2 µM (inactive) | 12.1 µM (inactive) | 20.1 µM (inactive) | 10.2 µM (inactive) | 15.7 µM (inactive) | 13.7 µM (inactive) | 15.8 µM (inactive) | 36.5 µM (inactive) | 24.6 µM (inactive) | 12.9 µM | 15.3 µM (inactive) | 20.7 µM (inactive)
Cc1ccc(OC2CC(n3cnc4c(=O)[nH]c(Br)nc43)OC2Oc2ccc(C)cc2)cc1 (stereo not drawn) | 21.5 µM (inactive) | 34.5 µM (inactive) | 23.9 µM (inactive) | 26.9 µM (inactive) | 19.8 µM (inactive) | 22.9 µM (inactive) | 34.5 µM (inactive) | 20.6 µM (inactive) | 19.1 µM (inactive) | 24.8 µM (inactive) | 26.9 µM (inactive) | > 100 µM (inactive) | 22.6 µM (inactive) | 26.8 µM (inactive) | 22.4 µM (inactive) | – | 37 µM (inactive) | 30.3 µM | 29.2 µM (inactive) | 23.1 µM (inactive)
CCC/C(=N\NC(=S)N1CCN(c2ccccn2)CC1)c1ccccn1 | 0.0142 µM (active) | 0.437 µM (active) | – | 0.00881 µM (active) | 0.0207 µM (active) | 0.0205 µM (active) | 1.06 µM (active) | 0.0362 µM (active) | 0.0702 µM (active) | 0.00248 µM (active) | 0.0212 µM (active) | 0.541 µM (active) | 0.236 µM (active) | 0.115 µM (active) | 0.0108 µM (active) | 0.367 µM (active) | 0.191 µM (active) | 0.00528 µM | 0.00122 µM (active) | –
CC1(C)Oc2ccc(NC(=O)CCC(N)C(=O)O)cc2O1 (stereo not drawn) | > 100 µM (inactive) | > 100 µM (inactive) | > 100 µM (inactive) | > 100 µM (inactive) | > 100 µM (inactive) | > 100 µM (inactive) | > 100 µM (inactive) | > 100 µM (inactive) | > 100 µM (inactive) | > 100 µM (inactive) | > 100 µM (inactive) | > 100 µM (inactive) | – | > 100 µM (inactive) | > 100 µM (inactive) | > 100 µM (inactive) | > 100 µM (inactive) | > 100 µM | > 100 µM (inactive) | > 100 µM (inactive)
